These results are taken from article PMC11459956, “Onametostat, a PfPRMT5 inhibitor, exhibits antimalarial activity to Plasmodium falciparum” (Antimicrobial Agents and Chemotherapy, 2024).

The target in this assay is T1, PfPRMT5 (Plasmodium falciparum, UniProt Q8ID96).
T1 construct: gene PF3D7_1361000; protein A part cut by TEV, protein C tag kept; associated parasite proteins may co-purify
T1 sequence (Q8ID96 1-724): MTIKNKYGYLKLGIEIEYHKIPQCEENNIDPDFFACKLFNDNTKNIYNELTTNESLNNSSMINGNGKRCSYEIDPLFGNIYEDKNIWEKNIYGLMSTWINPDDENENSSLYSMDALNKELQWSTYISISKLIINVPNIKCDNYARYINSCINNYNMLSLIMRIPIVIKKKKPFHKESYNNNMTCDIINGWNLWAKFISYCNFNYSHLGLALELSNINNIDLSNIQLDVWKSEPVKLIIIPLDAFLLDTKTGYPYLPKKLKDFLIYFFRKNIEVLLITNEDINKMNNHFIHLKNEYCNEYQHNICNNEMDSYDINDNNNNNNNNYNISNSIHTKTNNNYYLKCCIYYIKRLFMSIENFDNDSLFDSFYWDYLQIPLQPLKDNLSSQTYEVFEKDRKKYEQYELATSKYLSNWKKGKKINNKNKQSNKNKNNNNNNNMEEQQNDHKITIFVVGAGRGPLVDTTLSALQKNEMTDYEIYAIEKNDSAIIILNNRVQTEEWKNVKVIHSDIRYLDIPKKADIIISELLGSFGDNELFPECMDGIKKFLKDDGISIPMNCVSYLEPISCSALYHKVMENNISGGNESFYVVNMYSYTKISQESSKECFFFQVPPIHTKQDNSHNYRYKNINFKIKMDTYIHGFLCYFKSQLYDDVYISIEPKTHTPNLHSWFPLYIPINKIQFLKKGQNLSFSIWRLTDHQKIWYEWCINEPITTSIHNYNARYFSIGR
Description: MTase-Glo luminescence methyltransferase assay. Format: biochemical. The conditions noted are these: 30 min pre-incubation at 37 °C, 115 µM PfPRMT5 as printed, 10 µM SAM, 0.1 µM human recombinant mononucleosomes, pH 8.0, 60 min.

As for `Nc1nc2cc(CC[C@H]3C[C@@H](n4ccc5c(N)ncnc54)[C@H](O)[C@@H]3O)ccc2cc1Br` [onametostat], the “% reduction of activity at 1:1 molar ratio PfPRMT5:onametostat” value was ~ 48%.
